# In Sander's compilation of Henry's law constants (doi:10.1016/j.watres.2017.04.074):
# Assay: Henry solubility constant Hcp at 298.15 K (mol/(m3 Pa))
# Settings: reference: Chao et al. (2017)
row,SMILES,Henry solubility constant Hcp
1,CNC(=O)ON=C(C)SC [methomyl],200
2,OCc1ccccc1 [(hydroxymethyl)-benzene],17
3,COP(=S)(OC)Oc1ccc([N+](=O)[O-])cc1 [methylparathion],17
4,O=[N+]([O-])c1ccccc1O [2-nitrophenol],9.9
5,CCNc1nc(NC(C)C)nc(SC)n1 [ametryn],21
6,"ClC1C(Cl)C(Cl)C(Cl)C(Cl)C1Cl (stereo unspecified) [γ-1,2,3,4,5,6-hexachlorocyclohexane]",3.1
7,O=[N+]([O-])c1ccc(O)cc1 [4-nitrophenol],14
8,CC(C)CO [2-methyl-1-propanol],1.2
9,O=[N+]([O-])c1cccc(Cl)c1 [3-chloronitrobenzene],1.4
10,Cc1cccc([N+](=O)[O-])c1 [3-nitrotoluene],1.3
11,Nc1ccccc1Cl [1-amino-2-chlorobenzene],0.78
12,CC1CCCC(O)C1 (stereo unspecified) [3-methylcyclohexanol],2.9
13,CCOC(=O)CC(SP(=S)(OC)OC)C(=O)OCC (stereo unspecified) [malathion],15
14,Nc1cccc(Cl)c1 [1-amino-3-chlorobenzene],4.7
15,Nc1ccccc1 [aminobenzene],4.4
16,ClC1=C(Cl)C2(Cl)C3C4OC4C(Cl)C3C1(Cl)C2(Cl)Cl (stereo unspecified) [heptachlorepoxide],0.96

row,SMILES,Henry solubility constant Hcp
1,ClC1=C(Cl)[C@]2(Cl)[C@@H]3[C@H]4C[C@H]([C@@H]5O[C@H]45)[C@@H]3[C@@]1(Cl)C2(Cl)Cl [endrin],1.5
2,COP(=O)(OC)C(O)C(Cl)(Cl)Cl (stereo unspecified),55
3,ClC1=C(Cl)[C@]2(Cl)[C@H]3[C@H]([C@@H]4C=C[C@H]3C4)[C@@]1(Cl)C2(Cl)Cl [aldrin],0.26
4,CN(C)C(=O)Nc1ccc(Cl)c(Cl)c1 [diuron],35
5,O=[N+]([O-])c1ccccc1 [nitrobenzene],0.67
6,COC(=O)c1ccccc1C(=O)OC [dimethyl phthalate],23
7,O=[N+]([O-])c1cccc2ccccc12 [1-nitronaphthalene],4.6
8,ClC1=C(Cl)[C@]2(Cl)[C@@H]3[C@@H]4C[C@@H]([C@H]5O[C@@H]45)[C@@H]3[C@@]1(Cl)C2(Cl)Cl [dieldrin],0.65
9,"Clc1ccc(C(c2ccc(Cl)cc2)C(Cl)Cl)cc1 [1,1-dichloro-2,2-bis-(4-chlorophenyl)-ethane]",0.76
10,Cc1ccccc1N [2-methylbenzenamine],3
11,O=[N+]([O-])c1ccc(Cl)cc1 [4-chloronitrobenzene],1.4
12,CNC(=O)Oc1cccc2c1OC(C)(C)C2 [carbofuran],24
13,Cc1ccccc1O [1-hydroxy-2-methylbenzene],6.5
14,"O=[N+]([O-])c1ccc(O)c([N+](=O)[O-])c1 [2,4-dinitrophenol]",970
15,Cc1cccc(N)c1 [3-methylbenzenamine],3.2
